From article PMC9735595, “Advanced EPI-X4 Derivatives Covalently Bind Human Serum Albumin Resulting in Prolonged Plasma Stability” (International Journal of Molecular Sciences, 2022)
Ends that are not written are not given here. Peptide text beside a SMILES is read from it. * marks the point of attachment. Cam = NC(=O)C*

Tests used:
[1] = Functional plasma stability assay (remaining activity in CXCR4 antibody competition after incubation in plasma); assay type: in vitro ADME, human; settings: 37 °C; for half-life in human plasma, functional assay: 20 µM in 100% pooled human K3 EDTA plasma (6 donors), aliquots serially diluted in cold PBS, 12G5-APC competition on SupT1 cells, 2 h at 4 °C, flow cytometry, activity = IC50(t)/IC50(t=0) x 100, one-phase decay, 3 rounds of plasma incubation
Procedure: For the functional assay, WSC02 (a) or JM#21 (b) were spiked into human plasma and incubated at 37 °C. At indicated time points, aliquots were taken and serially diluted in cold PBS. […] After 2 h, unbound antibody was removed, and cells were analyzed by flow cytometry. Remaining activity was determined described before. For detection by mass spectrometry, WSC02 (a) or JM#21 (b) were spiked into plasma and incubated at 37 °C. and analyzed in LC-MS/MS. Half-lives were calculated using a one-phase decay model in GraphPad Prism. Curve fits are shown as dashed lines. Data shown are derived from 3 individual rounds of plasma incubation ± SEM.
(§1) SupT1 cells were cultured in RPMI supplemented with 10% FCS, 100 units/mL penicillin, 100 µg/mL streptomycin, 2 mM L-glutamine, and 1 mM HEPES (Gibco). Blood was collected from healthy donors (male and female, average age 28 years) using S-Monovettes K3 EDTA (Sarstedt). Plasma was obtained by centrifugation of whole blood at 2.500× g for 15 min. Plasma of 6 donors was pooled and stored at −80 °C.
Competition of compounds with an APC-labeled antibody specific for ECL2 of CXCR4 (clone 12G5) was performed in SupT1 cells as described. For this, cells (without buffer) were precooled at 4 °C and a serial dilution of compounds in PBS together with a constant concentration of antibody diluted in buffer (PBS with 1% FCS) was added. After 2 h at 4 °C, unbound antibody was removed and cells analyzed in flow cytometry (CytoFLEX, Beckman Coulter). Mean fluorescence signals (MFI) in the presence of PBS only was set 100%. Isotype control was set 0%. Half-maximal inhibitory concentrations (IC50) were calculated in GraphPad Prism by nonlinear regression.
Decrease in CXCR4-binding activity after incubation of compounds in human plasma was determined to calculate functional stability as described (Harms et al. 2020). For this purpose, the peptides were dissolved at a concentration of 20 µM in 100% plasma. The first aliquot (t = 0) was immediately taken and stored at −80 °C. Aliquots were taken at given time points and also stored. To determine CXCR4 binding, all aliquots were thawed together and serially diluted in ice-cold PBS and subsequently, antibody competition was performed as described before. IC50 at t = 0 defined as 100% activity and decrease in activity was calculated by IC50 (t)/IC50 (t = 0) × 100. Half-lives were determined by one-phase decay using GraphPad Prism.

[2] = Half-life determination in plasma by mass spectrometry (LC-MS/MS); assay type: in vitro ADME, human; settings: 37 °C, one-phase decay; for half-life / half-life at 7 µM: both sexes, pooled K3 EDTA plasma, 3 rounds; for half-life: human plasma, LC-MS/MS of intact peptide normalized to t = 0, sample treatment for the variants not stated, read-out: half-life in human plasma, mass spectrometry, peptides without a reactive Cys-thiol; for half-life in human plasma, mass spectrometry, samples diluted with 0.1% TFA / half-life at 7 µM: 7 µM in human plasma; for half-life in human plasma, mass spectrometry, samples diluted with 0.1% TFA: aliquots diluted in 0.1% TFA only, LC-MS/MS peak area of intact free peptide, triplicate; for half-life at 7 µM: TFA samples ten-fold diluted with 50 mM NH4HCO3 + 10 mM DTT + 6M GuHCl before LC-MS/MS, read-out: half-life in human plasma, mass spectrometry, after GuHCl + DTT ("real" half-live)
Procedure: A 50 µL-aliquot of human plasma was spiked with 7 µM JM#21 or WSC02. The mixture was stirred for a few seconds and incubated at 37 °C. Five microliter aliquots were separated after 0, 5, 10, 20, 30, 45, 60, 90, and 120 min. Aliquots were immediately diluted with 1.5 mL 0.1% TFA and stored at −80 °C. The experiment was performed in triplicate. Additionally, for the measurement of denatured samples prior to MS measurement, all of the samples stored in 0.1% TFA were ten-fold diluted with 50 mM NH4HCO3 + 10 mM DTT + 6M GuHCl. A 15 uL-aliquot of every sample was used for mass spectrometry analysis as follows: samples were measured using an Orbitrap Elite Hybrid mass spectrometry system (Thermo Fisher Scientific, Bremen, Germany) online coupled to an U3000 RSLCnano (Thermo Fisher Scientific, Idstein, Germany) employing an Acclaim PepMap analytical column (75 μm × 500 mm, 2 μm, 100 Å, Thermo Fisher Scientific, Bremen, Germany) at a flow rate of 250 nL/min. Using a C18 μ-precolumn (0.3 mm × 5 mm, PepMap, Dionex LC Packings, Thermo Fisher Scientific, Bremen, Germany), samples were preconcentrated and washed with 0.1% TFA for 5 min at a flow rate of 30 μL/min. The subsequent separation was carried out using a binary solvent gradient consisting of solvent A (0.1% FA) and solvent B (86% ACN, 0.1% FA). The column was initially equilibrated in 5% B. In the first elution step, the percentage of B was raised from 5 to 15% in 5 min, followed by an increase from 15 to 40% B in 30 min. The column was washed with 95% B for 4 min and re-equilibrated with 5% B for 19 min. The mass spectrometer was equipped with a nanoelectrospray ion source and distal-coated SilicaTips (FS360-20-10-D, New Objective, Woburn, MA, USA). The instrument was externally calibrated using standard compounds (LTQ Velos ESI Positive Ion Calibration Solution, Pierce, Thermo Scientific, Rockford, IL, USA). The system was operated using the following parameters: spray voltage, 1.5 kV; capillary temperature, 250 °C; S-lens RF level, 68.9%. XCalibur 2.2 SP1.48 (Thermo Fisher Scientific, Bremen, Germany) was used for data-dependent tandem mass spectrometry (MS/MS) analyses. Full scans ranging from m/z 370 to 1700 were acquired in the Orbitrap at a resolution of 30,000 (at m/z 400) with automatic gain control (AGC) enabled and set to 106 ions and a maximum fill time of 500 ms. Up to 20 multiply-charged peptide ions were selected from each survey scan for collision-induced fragmentation (CID) in the linear ion trap using AGC set to 10,000 ions and a maximum fill time of 100 ms. For MS/MS fragmentation, normalized collision energy of 35% with an activation q of 0.25 and an activation time of 30 ms was used.
For visualization in the XCalibur Qual Browser 2.0 (Thermo Fisher Scientific, Bremen, Germany), extracted ion xhromatograms (XICs) of the most intense isotope (±20 ppm), as theoretically predicted, at z = 3 or z = 4 were calculated. Using default parameters within the QualBrowser, peak areas were calculated and exported. Half-lives were determined by fitting the data (peak area vs. time) to a one-phase exponential decay model using GraphPad Prism 8.4.3 (GraphPad Prism Software LLC, San Diego, CA, USA).
(§2) The influence of several reagents on peptide detection was tested with aliquots separated (peptide + plasma, 300-fold diluted in 0.1%TFA) at t = 10 min. The aliquots were analyzed by LC-MS/MS, as previously described, after 10-fold dilution in 0.1% TFA, 6M GuHCl, 50 mM NH4HCO3 + 10 mM DTT, and 50 mM NH4HCO3 + 10 mM DTT + 6M GuHCl, respectively.
as §1

[3] = tested on: CXCR4; settings: cited from earlier work
Text: In addition, both peptides contain a cystein ...

[4] = target: T1, human serum albumin (HSA) (Homo sapiens, UniProt P02768); assay: Interaction with plasma components: size-exclusion fractionation and tryptic digestion of spiked plasma, LC-MS/MS; assay type: in vitro ADME; settings: plasma spiked with peptide, 37 °C, 10 min; SEC fractions treated with DTT + GuHCl; tryptic digest LC-MSMS
T1 construct: from tissue; host or cells: human plasma
Procedure: as §2
A 5 µL aliquot of the peptides in plasma, after incubation at 37 °C for 10 min, was injected into a size-exclusion column Yarra SEC-2000 (Phenomenex, CA, USA) of dimensions 7.8 × 300 mm, 3 µm particle size. The separation was done at a flow rate of 0.5 mL/min using a buffer composed of 25 mM NaH2PO4 + 25 mM Na2HPO4 + 250 mM KCl (pH 6.65). Fractions were collected every one minute, and then analyzed by mass spectrometry in denaturing conditions (1/10 in 50 mM NH4HCO3 + 10 mM DTT + 6M GuHCl) as previously described.
A 5 µL aliquot of plasma spiked with WSC02 or JM#21 was mixed with trypsin (50:1) and incubated at 37 degrees for 16 h. Half of the digested sample was reduced and carbamidomethylated, as described above. The digested samples, both unmodified and carbamidomethylated, were analyzed by mass spectrometry, as previously described in this section.

[5] = human plasma, antibody competition read-out, 3 rounds
[6] = human plasma, 30 min, antibody competition read-out, 3 rounds

T1 sequence (P02768 25-609): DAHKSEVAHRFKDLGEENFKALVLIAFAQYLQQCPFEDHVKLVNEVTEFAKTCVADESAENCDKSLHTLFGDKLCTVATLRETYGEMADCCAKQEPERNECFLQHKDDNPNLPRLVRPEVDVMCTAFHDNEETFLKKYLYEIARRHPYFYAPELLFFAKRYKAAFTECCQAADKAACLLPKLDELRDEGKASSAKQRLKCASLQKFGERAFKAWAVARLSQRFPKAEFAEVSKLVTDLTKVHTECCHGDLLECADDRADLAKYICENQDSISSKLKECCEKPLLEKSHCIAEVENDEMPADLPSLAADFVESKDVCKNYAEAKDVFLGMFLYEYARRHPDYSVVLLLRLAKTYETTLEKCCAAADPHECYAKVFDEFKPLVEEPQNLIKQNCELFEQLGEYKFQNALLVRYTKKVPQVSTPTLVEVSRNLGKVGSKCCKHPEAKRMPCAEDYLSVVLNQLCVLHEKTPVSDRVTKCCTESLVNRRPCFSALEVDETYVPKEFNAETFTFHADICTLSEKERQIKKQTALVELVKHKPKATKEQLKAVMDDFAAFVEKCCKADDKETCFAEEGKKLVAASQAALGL

Compound	half-life in human plasma, functional assay [1]	activity decreased by (loss of activity) after 15 min in plasma [1, 5]	half-life [2]	activity reduced by (loss of activity) after 30 min in plasma [1, 6]	half-life in human plasma, functional assay ([1]; listed as JM#21)	remaining activity after 30 min in plasma [1, 6]	half-life in human plasma, mass spectrometry, samples diluted with 0.1% TFA [2]	half-life at 7 µM [2]	higher antagonistic activity as compared with EPI-X4 [3]	interaction with human serum albumin in plasma (in words) [4]	half-life in human plasma, functional assay ([1]; listed as WSC02)	remaining activity after 60 min in plasma ([1]; human plasma, 60 min, antibody competition read-out, 3 rounds)
CC[C@H](C)[C@H](N)C(=O)N[C@@H](CC(C)C)C(=O)N[C@@H](CCCNC(=N)N)C(=O)N[C@@H](Cc1c[nH]c2ccccc12)C(=O)N[C@@H](CO)C(=O)N[C@@H](CCCNC(=N)N)C(=O)N[C@@H](CCCCN)C(=O)N[C@@H](CC(C)C)C(=O)N1CCC[C@H]1C(=O)N[C@@H](CSCC(N)=O)C(=O)N[C@H](C(=O)N[C@@H](CO)C(=O)O)C(C)C [JM#21 Cdm]	3 min	95%	3 min	–	–	–	–	–	–	–	–	–
CC[C@H](C)[C@H](N)C(=O)N[C@H](C(=O)N[C@@H](CCCNC(=N)N)C(=O)N[C@@H](Cc1c[nH]c2ccccc12)C(=O)N[C@@H](CO)C(=O)N[C@@H](CCCCN)C(=O)N[C@@H](CCCCN)C(=O)N[C@H](C(=O)N1CCC[C@H]1C(=O)N[C@@H](CSCC(N)=O)C(=O)N[C@H](C(=O)N[C@@H](CO)C(=O)O)C(C)C)C(C)C)C(C)C [WSC02 Cdm] (H-IVRWSKKVPC(Cam)VS-OH)	6 min	–	5 min	93%	–	–	–	–	–	–	–	–
CC[C@H](C)[C@H](N)C(=O)N[C@@H](CC(C)C)C(=O)N[C@@H](CCCNC(=N)N)C(=O)N[C@@H](Cc1c[nH]c2ccccc12)C(=O)N[C@@H](CO)C(=O)N[C@@H](CCCNC(=N)N)C(=O)N[C@@H](CCCCN)C(=O)N[C@@H](CC(C)C)C(=O)N1CCC[C@H]1C(=O)N[C@@H](CS)C(=O)N[C@H](C(=O)N[C@@H](CO)C(=O)O)C(C)C [EPI-X4 JM#21]	6 min	69%	–	–	~6 min	10%	1.7 min	5 min	~300 fold	forming a disulfide bridge with a free thiol group (Cys34) on HSA	–	–
IVRWSKKVPSVS [WSC02 C10S]	7 min	–	4 min	92%	–	–	–	–	–	–	–	–
ILRWSRKLPSVS [JM#21 C10S]	4 min	91%	4 min	–	–	–	–	–	–	–	–	–
IVRWSKKVPCVS [EPI-X4 WSC02]	9 min	–	–	–	–	–	0.7 min	6 min	–	forming a disulfide bridge with a free thiol group (Cys34) on HSA	about 9 min	20%
